Measurements published in patent publication US20240018120A1, “MAGL INHIBITORS” (H. LUNDBECK A/S, priority 2020, published 2024).

Tests used:
[1] = tested on: cryopreserved human hepatocytes; experiment: In vitro human hepatocyte stability; assay type: in vitro ADME; details: human hepatocytes 0.5×10^6 cells/mL, 1 μM
Description: The metabolic stability of test articles (1 μM) in commercially sourced, pooled donor, cryopreserved human hepatocytes (0.5×10^6 cells/mL) was determined in duplicate. The CLint reactions (250 μL) were initiated by addition of test compound. Aliquots (25 μL) were taken at 0, 15, 30, 45, 60, 90, 120 and 240 minutes and then protein crashed with ice-cold acetonitrile containing internal standard then centrifuged (3220 g for 25 minutes). Supernatant was used for LC-MS/MS analysis. The in vitro half-life (in vitro t½) was determined from the slope value: in vitro t1/2=−0.693/k. Conversion of the in vitro t1/2 (in min) into the scale-up unbound intrinsic clearance (Scaled-up unbound CLint, in mL/min/kg) was done using the following equation (mean of duplicate determinations), with data shown in Table 5: Scaled-up unbound CLint=kV/N×scaling factor. V=incubation volume (0.25 mL); N=number of hepatocytes per well ([…]). Scaling factors for in vivo intrinsic clearance prediction are listed below: […]

[2] = target: T1, MAGL (Homo sapiens, UniProt Q99685); experiment: In vitro competitive substrate hydrolysis enzyme activity assay (pNPA), HEK293 cell lysates; assay type: biochemical; parameters: expressed in transfected cells; host or cells: HEK293; details: HEK293 lysate
T1 sequence (Q99685 1-303): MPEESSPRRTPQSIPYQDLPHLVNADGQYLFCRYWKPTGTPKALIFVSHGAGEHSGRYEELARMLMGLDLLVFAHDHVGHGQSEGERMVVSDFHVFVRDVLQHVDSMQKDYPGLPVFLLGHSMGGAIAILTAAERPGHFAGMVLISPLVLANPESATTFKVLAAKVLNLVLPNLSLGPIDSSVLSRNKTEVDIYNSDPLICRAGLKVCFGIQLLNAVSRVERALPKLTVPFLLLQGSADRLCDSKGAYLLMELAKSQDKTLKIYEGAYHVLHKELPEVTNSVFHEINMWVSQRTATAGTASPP
Description: HEK293 cell lysates expressing recombinant human MAGL enzyme and 4-nitrophenyl acetate (pNPA) substrate were diluted separately in 50 mM HEPES (pH 7.0) containing 200 mM KCl and 1 mM EDTA. Lysates (50 μL, ˜1.2 μg total protein) were preincubated with varying concentrations of inhibitors at 25° C. After 30 min, 2×pNPA substrate (50 μL, 2.5 mM) was added and the rate of substrate turnover was monitored by measuring the increase in absorbance at wavelength 405 nm for 20 minutes at 25° C. using a Biotek Neo2 plate reader. The mean velocity was converted to percent enzyme activity following background subtraction and normalization to DMSO controls. IC50 values were determined by fitting percent enzyme activities to a non-linear regression, 4-parameter, sigmoidal dose response function in Prism GraphPad.

[3] = target: T1, MAGL; experiment: In vitro competitive activity-based protein profiling, PC3 human cell membrane proteomes; assay type: biochemical; parameters: endogenous in cells; host or cells: PC3 human cells (membrane proteome); details: human PC3 membrane proteome; for inhibition at 1 µM: read-out: MAGL % inh. 1 μM (human PC3)
Outline: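 Competitive ABPP in PC3 membrane proteome (2.0 mg/mL protein): inhibitors preincubated 30 min at 37° C, then JW912-Bodipy probe added for 30 min at room temperature. MAGL band fluorescence after SDS-PAGE normalised to DMSO; IC50 from 4-parameter sigmoidal fit.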

IC50 [2]	inhibition at 1 µM [3]	Compound	Scaled-up unbound CLint [1]	IC50 [3]
–	–	CP(C)(=O)c1ccc(NC(=O)C2CC23CCN(C(=O)OC(C(F)(F)F)C(F)(F)F)CC3)cn1 (single isomer, unassigned) [Example 20, 1,1,1,3,3,3-Hexafluoropropan-2-yl (R or S)-1-((6-(dimethylphosphoryl)pyridin-3-yl)carbamoyl)-6-azaspiro[2.5]octane-6-carboxylate]	0.85 mL/min/kg	0.029 µM
–	–	O=C(Nc1ccncc1)C1CC12CCN(C(=O)OC(C(F)(F)F)C(F)(F)F)CC2 (single isomer, unassigned) [Example 24, 1,1,1,3,3,3-Hexafluoropropan-2-yl (R or S)-1-(pyridin-4-ylcarbamoyl)-6-azaspiro[2.5]octane-6-carboxylate]	11.9 mL/min/kg	0.0024 µM
–	–	O=C(Nc1ccc(-n2cccn2)nc1)C1CC12CCN(C(=O)OC(C(F)(F)F)C(F)(F)F)CC2 (single isomer, unassigned) [Example 29, 1,1,1,3,3,3-Hexafluoropropan-2-yl (R or S)-1-((6-(1H-pyrazol-1-yl)pyridin-3-yl)carbamoyl)-6-azaspiro[2.5]octane-6-carboxylate]	32.74 mL/min/kg	0.003 µM
0.00599 µM	–	O=C(NC(=O)C1CC12CCN(C(=O)OC(C(F)(F)F)C(F)(F)F)CC2)C1CCCCC1 (single isomer, unassigned) [Example 91, 1,1,1,3,3,3-hexafluoropropan-2-yl (R or S)-1-((cyclohexanecarbonyl)carbamoyl)-6-azaspiro[2.5]octane-6-carboxylate]	–	0.0037 µM
0.00284 µM	100%	O=C(NC(=O)C1CC12CCN(C(=O)OC(C(F)(F)F)C(F)(F)F)CC2)c1ccccc1 (single isomer, unassigned) [Example 93, 1,1,1,3,3,3-hexafluoropropan-2-yl (R or S)-1-(benzoylcarbamoyl)-6-azaspiro[2.5]octane-6-carboxylate]	–	–
0.00323 µM	–	O=C(NC(=O)C1CC12CCN(C(=O)OC(C(F)(F)F)C(F)(F)F)CC2)c1ccccc1 (single isomer, unassigned) [Example 94, 1,1,1,3,3,3-hexafluoropropan-2-yl (R or S)-1-(benzoylcarbamoyl)-6-azaspiro[2.5]octane-6-carboxylate]	–	0.0051 µM
0.00552 µM	–	O=C(Nc1cnc(C(F)(F)F)nc1)C1CC12CCN(C(=O)OC(C(F)(F)F)C(F)(F)F)CC2 (single isomer, unassigned) [Example 99, 1,1,1,3,3,3-hexafluoropropan-2-yl (R or S)-1-((2-(trifluoromethyl)pyrimidin-5-yl)carbamoyl)-6-azaspiro[2.5]octane-6-carboxylate]	–	0.0097 µM
–	–	Cc1cnc(NC(=O)C2CC23CCN(C(=O)OC(C(F)(F)F)C(F)(F)F)CC3)cn1 (single isomer, unassigned) [Example 112, 1,1,1,3,3,3-hexafluoropropan-2-yl (R or S)-1-((5-methylpyrazin-2-yl)carbamoyl)-6-azaspiro[2.5]octane-6-carboxylate]	9.59 mL/min/kg	0.0042 µM
–	–	O=C(NCC1CCOCC1)[C@H]1CC12CCN(C(=O)OC(C(F)(F)F)C(F)(F)F)CC2 (single isomer, unassigned) [Example 117]	20.55 mL/min/kg	0.0047 µM
–	–	Cn1ccc(NC(=O)C2CC23CCN(C(=O)OC(C(F)(F)F)C(F)(F)F)CC3)n1 (single isomer, unassigned) [Example 127, 1,1,1,3,3,3-hexafluoropropan-2-yl (R or S)-1-((1-methyl-1H-pyrazol-3-yl)carbamoyl)-6-azaspiro[2.5]octane-6-carboxylate]	9.51 mL/min/kg	0.019 µM
–	–	O=C(Nc1cncs1)C1CC12CCN(C(=O)OC(C(F)(F)F)C(F)(F)F)CC2 (single isomer, unassigned) [Example 129, 1,1,1,3,3,3-hexafluoropropan-2-yl (R or S)-1-(thiazol-5-ylcarbamoyl)-6-azaspiro[2.5]octane-6-carboxylate]	53.56 mL/min/kg	–
–	–	CC1(NC(=O)C2CC23CCN(C(=O)OC(C(F)(F)F)C(F)(F)F)CC3)CCOCC1 (single isomer, unassigned) [Example 132, 1,1,1,3,3,3-hexafluoropropan-2-yl (R or S)-1-((4-methyltetrahydro-2H-pyran-4-yl)carbamoyl)-6-azaspiro[2.5]octane-6-carboxylate]	44.18 mL/min/kg	0.027 µM
–	–	Cn1nccc1NC(=O)C1CC12CCN(C(=O)OC(C(F)(F)F)C(F)(F)F)CC2 (single isomer, unassigned) [Example 135, 1,1,1,3,3,3-hexafluoropropan-2-yl (R or S)-1-((1-methyl-1H-pyrazol-5-yl)carbamoyl)-6-azaspiro[2.5]octane-6-carboxylate]	16.79 mL/min/kg	0.015 µM
–	–	O=C(Nc1nccs1)C1CC12CCN(C(=O)OC(C(F)(F)F)C(F)(F)F)CC2 (single isomer, unassigned) [Example 138, 1,1,1,3,3,3-hexafluoropropan-2-yl (R or S)-1-(thiazol-2-ylcarbamoyl)-6-azaspiro[2.5]octane-6-carboxylate]	40.48 mL/min/kg	0.001 µM
–	–	O=C(NCc1ccccc1)[C@H]1CC12CCN(C(=O)OC(C(F)(F)F)C(F)(F)F)CC2 (single isomer, unassigned) [Example 150]	88.79 mL/min/kg	0.0031 µM
–	–	CC1(CNC(=O)C2CC23CCN(C(=O)OC(C(F)(F)F)C(F)(F)F)CC3)CCOCC1 (single isomer, unassigned) [Example 168, 1,1,1,3,3,3-hexafluoropropan-2-yl (R or S)-1-(((4-methyltetrahydro-2H-pyran-4-yl)methyl)carbamoyl)-6-azaspiro[2.5]octane-6-carboxylate]	61.36 mL/min/kg	0.0074 µM
–	–	CS(=O)(=O)Nc1ccc(NC(=O)C2CC23CCN(C(=O)OC(C(F)(F)F)C(F)(F)F)CC3)cn1 (single isomer, unassigned) [Example 181, 1,1,1,3,3,3-hexafluoropropan-2-yl (R or S)-1-((6-(methylsulfonamido)pyridin-3-yl)carbamoyl)-6-azaspiro[2.5]octane-6-carboxylate]	1.94 mL/min/kg	0.0305 µM
0.553 µM	100%	O=C(Nc1cccnn1)[C@@H]1CC12CCN(C(=O)OC(C(F)(F)F)C(F)(F)F)CC2 [Example 5, 1,1,1,3,3,3-Hexafluoropropan-2-yl (R)-1-(pyridazin-3-ylcarbamoyl)-6-azaspiro[2.5]octane-6-carboxylate]	–	0.18 µM

Compound	IC50 [2]	inhibition at 1 µM [3]	Scaled-up unbound CLint [1]	IC50 [3]
O=C(Nc1cccnc1)[C@H]1CC12CCN(C(=O)OC(C(F)(F)F)C(F)(F)F)CC2 (single isomer, unassigned) [Example 2]	0.00289 µM	100%	34.8 mL/min/kg	0.002 µM
O=C(Nc1cncc(F)c1)C1CC12CCN(C(=O)OC(C(F)(F)F)C(F)(F)F)CC2 (single isomer, unassigned) [Example 40, 1,1,1,3,3,3-hexafluoropropan-2-yl (R or S)-1-((5-fluoropyridin-3-yl)carbamoyl)-6-azaspiro[2.5]octane-6-carboxylate]	0.00343 µM	–	43.25 mL/min/kg	0.0027 µM
O=C(Nc1cncnc1)C1CC12CCN(C(=O)OC(C(F)(F)F)C(F)(F)F)CC2 (single isomer, unassigned) [Example 97, 1,1,1,3,3,3-hexafluoropropan-2-yl (R or S)-1-(pyrimidin-5-ylcarbamoyl)-6-azaspiro[2.5]octane-6-carboxylate]	1.38 µM	–	–	0.2 µM
